From ChEMBL document CHEMBL3885881, “DrugMatrix”

Species: Rattus norvegicus
Assay: DrugMatrix - Regimen: Daily Repeat
Format: toxicity, organism-based, Sprague-Dawley
Set-up: regimen Daily Repeat, gender Male, age 6-8 weeks
Conditions: in vivo, sc, 1.75 mg/kg, route mini-PUMP - SUBCUTANEOUS, dose level High, vehicle 100 % SALINE; for ABSOLUTE BASOPHIL / ABSOLUTE EOSINOPHIL / ABSOLUTE LYMPHOCYTE / ABSOLUTE MONOCYTE / ABSOLUTE SEGMENTED NEUTROPHIL / BASOPHIL / EOSINOPHIL / ERYTHROCYTE COUNT / HEMATOCRIT / HEMOGLOBIN / LEUKOCYTE COUNT / LYMPHOCYTE / MEAN CORPUSCULAR HEMOGLOBIN / MEAN CORPUSCULAR HEMOGLOBIN CONCENTRATION / MEAN CORPUSCULAR VOLUME / MONOCYTE / NEUTROPHIL / NUCLEATED RED BLOOD CELLS / PLATELET COUNT: tissue Blood; for ALANINE AMINOTRANSFERASE / ALBUMIN / ALKALINE PHOSPHATASE / ASPARTATE AMINOTRANSFERASE / BLOOD UREA NITROGEN / CARBON DIOXIDE / CHLORIDE / CHOLESTEROL / CREATININE / GLUCOSE / LACTATE DEHYDROGENASE / LIPASE / PHOSPHORUS / POTASSIUM / SODIUM / TOTAL BILIRUBIN / TOTAL PROTEIN / URIC ACID: tissue Plasma

NC[C@H](O)c1ccc(O)c(O)c1 [NOREPINEPHRINE]
ABSOLUTE BASOPHIL (72 h, time 3 day): 0 CELLS/uL | ABSOLUTE EOSINOPHIL (72 h, time 3 day): 0 CELLS/uL | ABSOLUTE LYMPHOCYTE (72 h, time 3 day): 13450.33 CELLS/uL | ABSOLUTE MONOCYTE (72 h, time 3 day): 275.33 CELLS/uL | ABSOLUTE SEGMENTED NEUTROPHIL (72 h, time 3 day): 1174.33 CELLS/uL | BASOPHIL (72 h, time 3 day): 0% | EOSINOPHIL (72 h, time 3 day): 0% | ERYTHROCYTE COUNT (72 h, time 3 day): 6.14 x10E6/uL | HEMATOCRIT (72 h, time 3 day): 36.87% | HEMOGLOBIN (72 h, time 3 day): 13.53 G/DL | LEUKOCYTE COUNT (72 h, time 3 day): 14.9 x10E3/uL | LYMPHOCYTE (72 h, time 3 day): 90.67% | MEAN CORPUSCULAR HEMOGLOBIN (72 h, time 3 day): 22.03 pg | MEAN CORPUSCULAR HEMOGLOBIN CONCENTRATION (72 h, time 3 day): 36.73 G/DL | MEAN CORPUSCULAR VOLUME (72 h, time 3 day): 60 fL | MONOCYTE (72 h, time 3 day): 2% | NEUTROPHIL (72 h, time 3 day): 7.33% | NUCLEATED RED BLOOD CELLS (72 h, time 3 day): 0.33 /100WBC | PLATELET COUNT (72 h, time 3 day): 1242.33 x10E3/uL | ALANINE AMINOTRANSFERASE (72 h, time 3 day): 42.67 u/L | ALBUMIN (72 h, time 3 day): 4.07 G/DL | ALKALINE PHOSPHATASE (72 h, time 3 day): 322.67 u/L | ASPARTATE AMINOTRANSFERASE (72 h, time 3 day): 89.33 u/L | BLOOD UREA NITROGEN (72 h, time 3 day): 16.67 mg/dL | CARBON DIOXIDE (72 h, time 3 day): 25 mmol/L | CHLORIDE (72 h, time 3 day): 104.33 MEQ/L | CHOLESTEROL (72 h, time 3 day): 72.67 mg/dL | CREATININE (72 h, time 3 day): 0.21 mg/dL | GLUCOSE (72 h, time 3 day): 169 mg/dL | LACTATE DEHYDROGENASE (72 h, time 3 day): 701 u/L | LIPASE (72 h, time 3 day): 9.67 u/L | PHOSPHORUS (72 h, time 3 day): 11.73 mg/dL | POTASSIUM (72 h, time 3 day): 6.75 MEQ/L | SODIUM (72 h, time 3 day): 150.2 MEQ/L | TOTAL BILIRUBIN (72 h, time 3 day): 0.17 mg/dL | TOTAL PROTEIN (72 h, time 3 day): 6.3 G/DL | URIC ACID (72 h, time 3 day): 1.8 mg/dL | ABSOLUTE BASOPHIL (120 h, time 5 day): 0 CELLS/uL | ABSOLUTE EOSINOPHIL (120 h, time 5 day): 0 CELLS/uL | ABSOLUTE LYMPHOCYTE (120 h, time 5 day): 12875 CELLS/uL | ABSOLUTE MONOCYTE (120 h, time 5 day): 478 CELLS/uL | ABSOLUTE SEGMENTED NEUTROPHIL (120 h, time 5 day): 2047 CELLS/uL | BASOPHIL (120 h, time 5 day): 0% | EOSINOPHIL (120 h, time 5 day): 0% | ERYTHROCYTE COUNT (120 h, time 5 day): 6.43 x10E6/uL | HEMATOCRIT (120 h, time 5 day): 38.73% | HEMOGLOBIN (120 h, time 5 day): 14.3 G/DL | LEUKOCYTE COUNT (120 h, time 5 day): 15.4 x10E3/uL | LYMPHOCYTE (120 h, time 5 day): 84.33% | MEAN CORPUSCULAR HEMOGLOBIN (120 h, time 5 day): 22.23 pg | MEAN CORPUSCULAR HEMOGLOBIN CONCENTRATION (120 h, time 5 day): 36.93 G/DL | MEAN CORPUSCULAR VOLUME (120 h, time 5 day): 60.27 fL | MONOCYTE (120 h, time 5 day): 3% | NEUTROPHIL (120 h, time 5 day): 12.67% | NUCLEATED RED BLOOD CELLS (120 h, time 5 day): 0 /100WBC | PLATELET COUNT (120 h, time 5 day): 1321.67 x10E3/uL | ALANINE AMINOTRANSFERASE (120 h, time 5 day): 45 u/L | ALBUMIN (120 h, time 5 day): 4.47 G/DL | ALKALINE PHOSPHATASE (120 h, time 5 day): 289.33 u/L | ASPARTATE AMINOTRANSFERASE (120 h, time 5 day): 74.33 u/L | BLOOD UREA NITROGEN (120 h, time 5 day): 14.67 mg/dL | CARBON DIOXIDE (120 h, time 5 day): 28 mmol/L | CHLORIDE (120 h, time 5 day): 103 MEQ/L | CHOLESTEROL (120 h, time 5 day): 70.67 mg/dL | CREATININE (120 h, time 5 day): 0.13 mg/dL | GLUCOSE (120 h, time 5 day): 203 mg/dL | LACTATE DEHYDROGENASE (120 h, time 5 day): 122 u/L | LIPASE (120 h, time 5 day): 9.33 u/L | PHOSPHORUS (120 h, time 5 day): 12.63 mg/dL | POTASSIUM (120 h, time 5 day): 6.59 MEQ/L | SODIUM (120 h, time 5 day): 150.5 MEQ/L | TOTAL BILIRUBIN (120 h, time 5 day): 0.17 mg/dL | TOTAL PROTEIN (120 h, time 5 day): 6.8 G/DL | URIC ACID (120 h, time 5 day): 2.17 mg/dL | ABSOLUTE BASOPHIL ([…], time 14 day): 0 CELLS/uL | ABSOLUTE EOSINOPHIL ([…], time 14 day): 45.6 CELLS/uL | ABSOLUTE LYMPHOCYTE ([…], time 14 day): 15398.2 CELLS/uL | ABSOLUTE MONOCYTE ([…], time 14 day): 562 CELLS/uL | ABSOLUTE SEGMENTED NEUTROPHIL ([…], time 14 day): 3234.2 CELLS/uL | BASOPHIL ([…], time 14 day): 0% | EOSINOPHIL ([…], time 14 day): 0.2% | ERYTHROCYTE COUNT ([…], time 14 day): 6.59 x10E6/uL | HEMATOCRIT ([…], time 14 day): 38.5% | HEMOGLOBIN ([…], time 14 day): 14.08 G/DL | LEUKOCYTE COUNT ([…], time 14 day): 19.24 x10E3/uL | LYMPHOCYTE ([…], time 14 day): 80.6% | MEAN CORPUSCULAR HEMOGLOBIN ([…], time 14 day): 21.36 pg | MEAN CORPUSCULAR HEMOGLOBIN CONCENTRATION ([…], time 14 day): 36.56 G/DL | MEAN CORPUSCULAR VOLUME ([…], time 14 day): 58.42 fL | MONOCYTE ([…], time 14 day): 3% | NEUTROPHIL ([…], time 14 day): 16.2% | NUCLEATED RED BLOOD CELLS ([…], time 14 day): 0 /100WBC | PLATELET COUNT ([…], time 14 day): 980.2 x10E3/uL | ALANINE AMINOTRANSFERASE ([…], time 14 day): 57.6 u/L | ALBUMIN ([…], time 14 day): 4.18 G/DL | ALKALINE PHOSPHATASE ([…], time 14 day): 349 u/L | ASPARTATE AMINOTRANSFERASE ([…], time 14 day): 86 u/L | BLOOD UREA NITROGEN ([…], time 14 day): 15.8 mg/dL | CARBON DIOXIDE ([…], time 14 day): 30 mmol/L | CHLORIDE ([…], time 14 day): 102.6 MEQ/L | CHOLESTEROL ([…], time 14 day): 72.4 mg/dL | CREATININE ([…], time 14 day): 0.22 mg/dL | GLUCOSE ([…], time 14 day): 187.4 mg/dL | LACTATE DEHYDROGENASE ([…], time 14 day): 105.4 u/L | LIPASE ([…], time 14 day): 8.8 u/L | PHOSPHORUS ([…], time 14 day): 13.42 mg/dL | POTASSIUM ([…], time 14 day): 7.42 MEQ/L | SODIUM ([…], time 14 day): 147.96 MEQ/L | TOTAL BILIRUBIN ([…], time 14 day): 0.16 mg/dL | TOTAL PROTEIN ([…], time 14 day): 6.34 G/DL | URIC ACID ([…], time 14 day): 2.42 mg/dL
